Source: PubChem BioAssay AID212 (DTP/NCI, 2004)
“And” between values parts separate entries of the source, which are not always exact repeats. Equal entries are not always repeated. Results filed as inconclusive are left out.

System: BDF1 mice, colon carcinoma 38 sc, T/C %
Assay: NCI In Vivo Anticancer Drug Screen. Data for tumor model Colon Carcinoma 38 (subcutaneous) in B6D2F1 (BDF1) mice
Details: endpoint: median tumor weight (est.), higher = larger tumour
Outline: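 Compound antitumor activity was assessed in mice carrying transplantable tumors. Survival or tumor size was recorded, and each value is the treated-group measurement divided by that of the vehicle-treated control group.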

[1] = dose: 12.5 mg/kg/injection, schedule: Q07DX002 (ip), vehicle: saline with Tween-80

## NC(=S)N/N=C\c1ncccc1OCc1cccc(N)c1
dose: 25.0 mg/kg/injection, schedule: Q07DX002 (ip), vehicle: distilled water + Tween-80
  T/C: 80 % of control
dose: 50.0 mg/kg/injection, schedule: Q07DX002 (ip), vehicle: distilled water + Tween-80
  T/C: 79 % of control
dose: 100.0 mg/kg/injection, schedule: Q07DX002 (ip), vehicle: distilled water + Tween-80
  T/C: 78 % of control
dose: 200.0 mg/kg/injection, schedule: Q07DX002 (ip), vehicle: distilled water + Tween-80
  T/C: 71 % of control
dose: 400.0 mg/kg/injection, schedule: Q07DX002 (ip), vehicle: distilled water + Tween-80
  T/C: 80 % of control

## COc1cc([C@@H]2c3cc4c(c(O)c3C[C@H]3COC(=O)[C@@H]32)OCO4)cc(OC)c1O
dose: 0.5 mg/kg/injection, schedule: Q07DX002 (ip), vehicle: saline
  T/C: 78 % of control
dose: 1.0 mg/kg/injection, schedule: Q07DX002 (ip), vehicle: saline
  T/C: 65 % of control
dose: 2.0 mg/kg/injection, schedule: Q07DX002 (ip), vehicle: saline
  T/C: 81 % of control
dose: 4.0 mg/kg/injection, schedule: Q07DX002 (ip), vehicle: saline
  T/C: 123 % of control

## COC(=O)C(F)C(Br)C(=O)OC (stereo not given)
dose: 6.25 mg/kg/injection, schedule: Q07DX002 (ip), vehicle: saline with Tween-80
  T/C: 95 % of control and 99 % of control
[1]
  T/C: 63 % of control

## Nc1ncnc2c1ncn2C1OC(CO)CC1O (stereo not given)
dose: 75.0 mg/kg/injection, schedule: Q07DX002 (ip), vehicle: Klucel (hydroxypropylcellulose) (HPC)
  T/C: 110 % of control
dose: 150.0 mg/kg/injection, schedule: Q07DX002 (ip), vehicle: Klucel (hydroxypropylcellulose) (HPC)
  T/C: 88 % of control
dose: 300.0 mg/kg/injection, schedule: Q07DX002 (ip), vehicle: Klucel (hydroxypropylcellulose) (HPC)
  T/C: 54 % of control

## CC1=CC2OC3C(OC(=O)CCCCl)C(OC(=O)CCCCl)C(C)(C2(CO)CC1)C31CO1 (stereo not given)
dose: 2.0 mg/kg/injection, schedule: Q07DX003 (ip), vehicle: saline with Tween-80
  T/C: 103 % of control
dose: 8.0 mg/kg/injection, schedule: Q07DX003 (ip), vehicle: saline with Tween-80
  T/C: 76 % of control
dose: 16.0 mg/kg/injection, schedule: Q07DX003 (ip), vehicle: saline with Tween-80
  T/C: 83 % of control

## CC(=O)CC(c1ccccc1)c1c(O)c2ccccc2oc1=O (stereo not given)
dose: 0.01 mg/kg/injection, schedule: Q07DX002 (ip), vehicle: Klucel (hydroxypropylcellulose) (HPC)
  T/C: 96 % of control
dose: 0.02 mg/kg/injection, schedule: Q07DX002 (ip), vehicle: Klucel (hydroxypropylcellulose) (HPC)
  T/C: 119 % of control
dose: 0.05 mg/kg/injection, schedule: Q07DX002 (ip), vehicle: Klucel (hydroxypropylcellulose) (HPC)
  T/C: 100 % of control
dose: 0.1 mg/kg/injection, schedule: Q07DX002 (ip), vehicle: Klucel (hydroxypropylcellulose) (HPC)
  T/C: 95 % of control
dose: 0.2 mg/kg/injection, schedule: Q07DX002 (ip), vehicle: Klucel (hydroxypropylcellulose) (HPC)
  T/C: 86 % of control
dose: 0.22 mg/kg/injection, schedule: Q07DX002 (ip), vehicle: saline
  T/C: 115 % of control
dose: 0.45 mg/kg/injection, schedule: Q07DX002 (ip), vehicle: saline with Tween-80
  T/C: 91 % of control
dose: 0.45 mg/kg/injection, schedule: Q07DX002 (ip), vehicle: saline
  T/C: 96 % of control
dose: 0.9 mg/kg/injection, schedule: Q07DX002 (ip), vehicle: saline with Tween-80
  T/C: 110 % of control
dose: 0.9 mg/kg/injection, schedule: Q07DX002 (ip), vehicle: saline
  T/C: 88 % of control
dose: 1.8 mg/kg/injection, schedule: Q07DX002 (ip), vehicle: saline
  T/C: 72 % of control
dose: 3.6 mg/kg/injection, schedule: Q07DX002 (ip), vehicle: saline
  T/C: 67 % of control

## OCC1OC(n2cnc3c(=S)nc[nH]c32)C(O)C1O (stereo not given)
[1]
  T/C: 61 % of control
dose: 12.5 mg/kg/injection, schedule: Q07DX002 (ip), vehicle: saline
  T/C: 90 % of control
dose: 25.0 mg/kg/injection, schedule: Q07DX002 (ip), vehicle: saline with Tween-80
  T/C: 97 % of control and 118 % of control
dose: 25.0 mg/kg/injection, schedule: Q07DX002 (ip), vehicle: saline
  T/C: 101 % of control
dose: 50.0 mg/kg/injection, schedule: Q07DX002 (ip), vehicle: saline with Tween-80
  T/C: 77 % of control and 83 % of control and 80 % of control
dose: 50.0 mg/kg/injection, schedule: Q07DX002 (ip), vehicle: saline
  T/C: 14 % of control
dose: 100.0 mg/kg/injection, schedule: Q07DX002 (ip), vehicle: saline
  T/C: 17 % of control
dose: 200.0 mg/kg/injection, schedule: Q07DX002 (ip), vehicle: saline
  T/C: 46 % of control
dose: 400.0 mg/kg/injection, schedule: Q07DX002 (ip), vehicle: saline
  T/C: 22 % of control
dose: 800.0 mg/kg/injection, schedule: Q07DX002 (ip), vehicle: saline with Tween-80
  T/C: 33 % of control and 34 % of control and 57 % of control
dose: 1600.0 mg/kg/injection, schedule: Q07DX002 (ip), vehicle: saline with Tween-80
  T/C: 28 % of control
